According to PubChem BioAssay (NCI):
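Protocol summary: plate cells (96-well), add compound at 5 concentrations, incubate 48 h, interpolate endpoints linearly. Definition used: TGI = concentration required for complete inhibition of growth.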

What was measured:
Assay in all cases: inhibition of tumour cell growth, NCI panel, 48 h
[1] = tested on: K-562 leukemia
[2] = tested on: EKVX NSCLC
[3] = tested on: 786-0 renal
[4] = tested on: MOLT-4 leukemia
[5] = tested on: MDA-MB-231 breast
[6] = tested on: T-47D breast
[7] = tested on: HCT-116 colon
[8] = tested on: UACC-257 melanoma
[9] = tested on: SK-MEL-5 melanoma
[10] = tested on: SNB-19 CNS

`OCCOCn1nncc1Cn1ncc2c(SCc3ccccc3)ncnc21` was tested, and the TGI [1] was greater than 100 µM, the TGI [2] was greater than 100 µM and the TGI [3] was greater than 100 µM. The TGI [4] was 34 µM, the TGI [5] was greater than 100 µM and the TGI [6] was greater than 100 µM. It also gave a TGI [7] greater than 100 µM, a TGI [8] greater than 100 µM and a TGI [9] greater than 100 µM. The TGI [10] was greater than 100 µM.
Work on `CC1(C)OCC2OC3([C@@H]4OC(C)(C)O[C@H]4CO)OC(C)(C)OC3C2O1` (stereo partly drawn) yielded a TGI [1] greater than 100 µM, a TGI [2] greater than 100 µM and a TGI [3] greater than 100 µM. The TGI [4] was greater than 100 µM, the TGI [5] was greater than 100 µM and the TGI [6] was greater than 100 µM. It also gave a TGI [7] greater than 100 µM, a TGI [8] greater than 100 µM and a TGI [9] greater than 100 µM. The TGI [10] was greater than 100 µM.
`C1=C2C3=[N+](CCCCC3)CC2Cc2ccsc21` (stereo not drawn) showed a TGI [1] greater than 100 µM, a TGI [2] greater than 100 µM and a TGI [3] greater than 100 µM. The TGI [4] was greater than 100 µM, the TGI [5] was greater than 100 µM and the TGI [6] was greater than 100 µM. It also gave a TGI [7] greater than 100 µM, a TGI [8] of 85.3 µM and a TGI [9] greater than 100 µM. The TGI [10] was greater than 100 µM.
Work on `O=C1C=CC(=O)N1n1c(-c2ccccc2)n[nH]c1=O` yielded a TGI [1] greater than 100 µM, a TGI [2] greater than 100 µM and a TGI [3] greater than 100 µM. It also gave a TGI [4] greater than 100 µM, a TGI [5] greater than 100 µM and a TGI [6] greater than 100 µM. It also gave a TGI [7] greater than 100 µM, a TGI [8] greater than 100 µM and a TGI [9] greater than 100 µM.
With `O=C1NC2CCCCC2N=C1CC(=O)c1ccc(Br)cc1` (stereo not drawn) the TGI [1] was greater than 100 µM, the TGI [2] was 93.8 µM and the TGI [3] was greater than 100 µM. The TGI [4] was greater than 100 µM, the TGI [5] was 35.7 µM and the TGI [6] was greater than 100 µM. For the same compound, the TGI [7] was greater than 100 µM, the TGI [8] was greater than 100 µM and the TGI [9] was greater than 100 µM. For the same compound, the TGI [10] was greater than 100 µM.
In the case of `Cc1cc2c(O)c(c1)CN(CC(=O)O)Cc1cc(C)cc(c1O)CN(CC(=O)O)Cc1cc(C)cc(c1O)CN(CC(=O)O)C2`, the TGI [1] is reported as greater than 100 µM, the TGI [2] is reported as greater than 100 µM and the TGI [3] is reported as greater than 100 µM. It also gave a TGI [4] greater than 100 µM, a TGI [5] greater than 100 µM and a TGI [6] greater than 100 µM. It also gave a TGI [7] greater than 100 µM, a TGI [8] greater than 100 µM and a TGI [9] greater than 100 µM. The TGI [10] was greater than 100 µM.
In the case of `CC1C(NNc2ccccc2)Oc2cc3c(cc2C1c1ccccc1O)OCO3` (stereo not drawn), the TGI [1] is reported as 4.34 µM, the TGI [2] is reported as 23.3 µM and the TGI [3] is reported as 44.3 µM. It also gave a TGI [4] of 19.2 µM, a TGI [5] of 28.7 µM and a TGI [6] of 16.2 µM. For the same compound, the TGI [7] was 18.7 µM, the TGI [8] was 20.5 µM and the TGI [9] was 24.1 µM. The TGI [10] was 27.4 µM.
`COc1ccc(OC2OC(CO)C(OCc3ccccc3)C(OCc3ccccc3)C2OCc2ccccc2)cc1` (stereo not drawn) gave a TGI [1] greater than 100 µM, a TGI [2] greater than 100 µM and a TGI [3] greater than 100 µM. For the same compound, the TGI [4] was 72.9 µM, the TGI [5] was greater than 100 µM and the TGI [6] was greater than 100 µM. For the same compound, the TGI [7] was greater than 100 µM, the TGI [8] was greater than 100 µM and the TGI [9] was greater than 100 µM. The TGI [10] was greater than 100 µM.
`O=C(CCc1cc(O)cc(O)c1)NCCCNC(=O)CCc1cc(O)cc(O)c1` gave a TGI [1] greater than 100 µM, a TGI [2] greater than 100 µM and a TGI [3] greater than 100 µM. The TGI [4] was greater than 100 µM, the TGI [5] was greater than 100 µM and the TGI [6] was greater than 100 µM. For the same compound, the TGI [7] was greater than 100 µM, the TGI [8] was greater than 100 µM and the TGI [9] was greater than 100 µM. For the same compound, the TGI [10] was greater than 100 µM.
In the case of `CCP(=O)(OC)C1=CCN(C(=O)OCC[Si](C)(C)C)CC1` (stereo not drawn), the TGI [1] is reported as greater than 100 µM, the TGI [2] is reported as greater than 100 µM and the TGI [3] is reported as greater than 100 µM. It also gave a TGI [4] greater than 100 µM, a TGI [5] greater than 100 µM and a TGI [6] greater than 100 µM. For the same compound, the TGI [8] was greater than 100 µM, the TGI [9] was greater than 100 µM and the TGI [10] was greater than 100 µM.
`Cc1ccc2c(c1)-c1c(C#N)c(N)nc(-c3ccc(Cl)cc3)c1CCS2(=O)=O` gave a TGI [1] of 7.02 µM, a TGI [2] greater than 100 µM and a TGI [3] greater than 100 µM. The TGI [4] was 68.7 µM, the TGI [5] was greater than 100 µM and the TGI [6] was greater than 100 µM. It also gave a TGI [7] greater than 100 µM, a TGI [8] greater than 100 µM and a TGI [9] greater than 68 µM. It also gave a TGI [10] greater than 100 µM.
